Here are results for one compound from patent publication US9650325B2, “Compound, preparing method thereof, and use thereof as inhibitors of histone demethylase” (SNU R&DB FOUNDATION, priority 2013, dated 2017).

One data set has as its system KDM6. Put plainly: Immunoblotting of histone from tripartin-treated HeLa cell line: KDM6 inhibitory activity (H3K27me3). Type of data set: cell-based, human. The settings on record: 10 μM, 24 hours, vs DMSO control. Here is the method: (§1) HeLa cell line, which is a uterine cervical cancer cell line, was treated with tripartin and then histone was extracted from the tripartin-treated HeLa cell. A histone methylation antibody which may verify activity of the KDM was analyzed by immunoblotting to measure the KDM inhibiting effect.
(§2) 0.1% (w/v) DMSO (control group), or 0.1% (w/v) DMSO and 10 μM tripartin (experimental group) was added to the HeLa cell line, which was then incubated at 37° C. for 24 hours. Subsequently, proteins were extracted from the HeLa cell line, and the extracted proteins underwent electrophoresis with 15% SDS-polyacrylamide. Anti-histone H3 antibody (MILLIPORE), anti-H3K9me3 antibody (MILLIPORE), anti-H3K9me2 antibody (MILLIPORE), anti-H3K3me1 antibody (MILLIPORE), anti-H3K27me3 antibody (MILLIPORE), anti-H3K4me3 antibody (MILLIPORE), anti-H3K36me3 antibody (MILLIPORE), anti-H3K79me2 antibody (MILLIPORE), and anti-H3ace antibody (MILLIPORE) were used to perform immunoblotting. […] Herein, H”, “K”, “me”, and “ace” refer to histone, lysine (K), methylation, and acetylation, respectively. The number next to “H” refers to a histone number, the number next to “K” refers to the histone amino acid number, and the number next to “me” refers to the number of methylation. For example, “H3K9me3” refers to histone H3 with a tri-methylated lysine in the ninth position. […]
On the technique in general: Immunoblotting shows a protein as a band on a membrane.

A further data set deals with KDM4. Kind of data set: Immunoblotting of histone from tripartin-treated HeLa cell line: KDM4 inhibitory activity (H3K9me3). It is filed as cell-based, human. The note with it: 10 μM, 24 hours. Here is the method: as §1, §2
A further data set relates to KDM3. Kind of data set: Immunoblotting of histone from tripartin-treated HeLa cell line: KDM3 inhibitory activity (H3K9me2/1). It is filed as cell-based, human. The note with it: 10 μM, 24 hours, vs DMSO control. On the procedure:
as §1
(§3) 0.1% (w/v) DMSO (control group), or 0.1% (w/v) DMSO and 10 μM tripartin (experimental group) was added to the HeLa cell line, which was then incubated at 37° C. for 24 hours. Subsequently, proteins were extracted from the HeLa cell line, and the extracted proteins underwent electrophoresis with 15% SDS-polyacrylamide. Anti-histone H3 antibody (MILLIPORE), anti-H3K9me3 antibody (MILLIPORE), anti-H3K9me2 antibody (MILLIPORE), anti-H3K3me1 antibody (MILLIPORE), anti-H3K27me3 antibody (MILLIPORE), anti-H3K4me3 antibody (MILLIPORE), anti-H3K36me3 antibody (MILLIPORE), anti-H3K79me2 antibody (MILLIPORE), and anti-H3ace antibody (MILLIPORE) were used to perform immunoblotting. […] Herein, H”, “K”, “me”, and “ace” refer to histone, lysine (K), methylation, and acetylation, respectively. The number next to “H” refers to a histone number, the number next to “K” refers to the histone amino acid number, and the number next to “me” refers to the number of methylation. For example, “H3K9me3” refers to histone H3 with a tri-methylated lysine in the ninth position.
(§4) KDM3, KDM4, KDM6, KDM5, and KDM2/7 demethylate H3K9me2/1, H3K9me3, H3K27, H3K4, and H3K36, respectively.

Data set [1] can be described thus: Analysis of physicochemical properties of tripartin.
In the next data set the test system is KDM2/7. Put plainly: Immunoblotting of histone from tripartin-treated HeLa cell line: KDM2/7 inhibitory activity (H3K36me3). Type of data set: cell-based, human. The note with it: 10 μM, 24 hours, vs DMSO control. Here is the method:
as §1, §2

For the next data set, the system named is HeLa cell line. Put plainly: Immunoblotting of histone from tripartin-treated HeLa cell line: other histone marks (H3, H3K79me2, H3ace). It is filed as cell-based, human. The settings on record: 10 μM, 37° C., 24 hours, vs DMSO control. Here is the method:
as §1, §3, §4

A further data set has as its system KDM5. Kind of data set: Immunoblotting of histone from tripartin-treated HeLa cell line: KDM5 inhibitory activity (H3K4me3). It is filed as cell-based, human. The note with it: 10 μM, 24 hours, vs DMSO control. Here is the method: as §1, §2

With `O=C1C[C@@](O)(C(Cl)Cl)c2c(O)cc(O)cc21` [tripartin], in the data set on KDM6 (37° C.), the “H3K27me3 level (immunoblotting)” value was “not increased”. In the data set on KDM6, the KDM6 inhibitory effect result is on record as “No inhibitory effect”. The “H3K9me3 level (immunoblotting)” value in the data set with KDM4 (37° C., vs DMSO control) is given as “increased significantly”. Moreover, the KDM4 inhibitory effect entry in the data set on KDM4 (in comparison to the DMSO control group) is given as “inhibitory effect”. In the data set with KDM3 (37° C.), the “H3K9me1 level (immunoblotting)” value is “not increased” and the “H3K9me2 level (immunoblotting)” value is “not increased”. Moreover, the KDM3 inhibitory effect entry with KDM3 is on record as “No inhibitory effect”. For the same compound, the Solubility result in data set [1] (intermediate organic solvent such as methanol and acetone) is “well dissolved”. Moreover, the “Stability of the solid” value in data set [1] (room temperature) is “stable at room temperature”. The “H3K36me3 level (immunoblotting)” value in the data set with KDM2/7 (37° C.) is reported as “not increased”. The KDM2/7 inhibitory effect entry with KDM2/7 was “No inhibitory effect”. In the data set on HeLa cell line, the “H3K79me2 level (immunoblotting)” value is listed as “not increased”, the “H3ace level (immunoblotting)” value is recorded as “not increased” and the “H3 level (immunoblotting)” value is reported as “not increased”. Moreover, the “H3K4me3 level (immunoblotting)” value in the data set with KDM5 (37° C.) is “not increased”. For the same compound, the KDM5 inhibitory effect result with KDM5 is “No inhibitory effect”.
